B1: Wnt3a: factor of the Wnt signaling pathway added to the differentiation medium (protein, UniProt P56704 19-352, looked up)
Protein Wnt-3a: SYPIWWSLAVGPQYSSLGSQPILCASIPGLVPKQLRFCRNYVEIMPSVAEGIKIGIQECQHQFRGRRWNCTTVHDSLAIFGPVLDKATRESAFVHAIASAGVAFAVTRSCAEGTAAICGCSSRHQGSPGKGWKWGGCSEDIEFGGMVSREFADARENRPDARSAMNRHNNEAGRQAIASHMHLKCKCHGLSGSCEVKTCWWSQPDFRAIGDFLKDKYDSASEMVVEKHRESRGWVETLRPRYTYFKVPTERDLVYYEASPNFCEPNPETGSFGTRDRTCNVSSHGIDGCDLLCCGRGHNARAERRREKCRCVFHWCCYVSCQECTRVYDVHTCK
B2: Dkk1: factor of the Wnt signaling pathway added to the differentiation medium (protein, UniProt O94907 32-266, looked up)
Dickkopf-related protein 1: TLNSVLNSNAIKNLPPPLGGAAGHPGSAVSAAPGILYPGGNKYQTIDNYQPYPCAEDEECGTDEYCASPTRGGDAGVQICLACRKRRKRCMRHAMCCPGNYCKNGICVSSDQNHFRGEIEETITESFGNDHSTLDGYSRRTTLSSKMYHTKGQEGSVCLRSSDCASGLCCARHFWSKICKPVLKEGQVCTKHRRKGSHGLEIFQRCYCGEGLSCRIQKDHHQASNSSRLHTCQRH

Columns and labels:
[1] = system: cardiac progenitor cells; experiment: Effect of concentration of antifibrinolytic agent on cardiac progenitor cell-induced degradation of hydrogel (toluidine blue); format: cell-based; conditions: 0.5 or 1.0 mg/ml, 1 day culture
Method: 100 μl of the fibrinogen solution containing cardiac progenitor cells was added to 100 μl of each of the respective thrombin solutions containing aminomethylbenzoic acid in concentrations of […], 0.5, and 1.0 mg/ml. After complete formation of hydrogel, cardiac progenitor cells were cultured for 1 day, fixed with formalin, and stained with toluidine blue. An examination was made of the states of the fibrin hydrogels and cells.

[2] = system: myocardial fragments; experiment: Organ culture of myocardial fragments in fibrin hydrogel with antifibrinolytic agent (phase-contrast microscopy); format: cell-based, human; conditions: 100 μg/ml solution added to fibrinogen solution, organ culture 3 days
Method: Four fibrinogen solutions with respective concentrations of 2.5, 5.0, 10.0, and 20.0 mg/ml were prepared, and each was added with a 100 μg/ml aminomethylbenzoic acid or tranexamic acid solution, as in Example 5. From the heart of a brain-dead patient, the myocardium was taken after the removal of both the epicardium and the endocardium. […] The myocardial fragments were added at a density of 10 per 0.5 ml of a 1 unit/ml thrombin solution. Each of the four fibrinogen solutions was mixed at a volume ratio of 1:1 with the thrombin solution containing the cardiac fragments. The resulting mixture was aliquoted in an amount of 1 ml per well into 6-multiwell tissue culture plates before performing a polymerization and cross-linking reaction to form a hydrogel.

[3] = system: cardiac progenitor cell-induced fibrinolysis; experiment: Inhibition of antifibrinolytic agents against cardiac progenitor cell-induced fibrinolysis (fibrin hydrogel degradation, Alexa Fluor 488-fibrinogen release); format: cell-based
Method: The cardiac progenitor cells were mixed at a density of 2×10^5 cells per 100 μl of each of the four fibrinogen solutions with 100 μl of the thrombin solution, followed by a cross-linking reaction for 2 hrs. Following the formation of hydrogel, 300 μl of a cell culture was added to the hydrogel, and incubated for 1 day. A hydrogel void of cardiac progenitor cells was prepared for use as a control.
Antifibrinolytic agents were purchased from Sigma.

[4] = system: cardiac progenitor cells; experiment: Suspension cell culture assay for differentiation into cardiomyocytes (real-time PCR); format: cell-based; conditions: 1 mM in medium, 1 and 3 days
Method: A suspension of cardiac progenitor cells in a medium inducing myocardial differentiation was seeded at a density of 20,000 to 100,000 cells/well into polymer-coated 24-multiwell tissue culture plates preventive of cell and protein adhesion (Ultra-Low Attachment Surface, Corning, Lowell, Mass.). The medium was supplemented with 1 mM Wnt3a or Dkk1 before culturing the cardiac progenitor cells in a suspension culture condition or a monolayer culture condition. After culturing for 1 and 3 days, RNA was isolated from the cardiac progenitor cells and used to synthesize cDNA. Real-time PCR was performed on this cDNA to quantify mRNA levels of bone morphogenetic protein 2 (BMP2), SOX17, ANP, α-MHC, β-MHC, MLC2a, and MLC2v (myosin light chain-2 ventricle), which are involved in the formation of cardiospheres or the Wnt signaling pathway, thus evaluating the potential to differentiate into cardiomyocytes.

| Molecule | mRNA levels of ANP, α-MHC, β-MHC, MLC-2a and MLC2v [4] | mRNA levels of BMP2 and SOX17 [4] | also measured |
| --- | --- | --- | --- |
| NCc1ccc(C(=O)O)cc1 [aminomethylbenzoic acid] | – | – | cytotoxicity to the cardiac progenitor cells [1]: caused cytotoxicity |
| NC[C@H]1CC[C@H](C(=O)O)CC1 [tranexamic acid] | – | – | hydrogel as cell adhesion substrate during organ culture of myocardial fragments [2]: stable, three-dimensional cell adhesion substrates; antifibrinolytic activity compared with aminocaproid acid or aprotinin [3]: three times as high |
| aprotinin | – | – | degradation of fibrin hydrogel by cardiac progenitor cells ([3]; hydrogel containing the antifibrinolytic agent, cardiac progenitor cells embedded, incubated 1 day): 95% |
| B1 | increased | increased | – |
| B2 | reduced | decreased | – |

Reference: patent US20130295060A1, “METHOD FOR CULTURING CARDIAC PROGENITOR CELLS AND USE OF CARDIAC PROGENITOR CELLS” (Ewha University-Industry Collaboration Foundation, priority 2012, published 2013)
